# Source: ChEMBL document CHEMBL1201862, “PubChem BioAssay data set” (2004)
#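 Test compounds were applied to cells in 96-well plates for 48 hours at 5 doses. Abbreviation: GI50, concentration required for 50% inhibition of growth.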 The source made the active and inactive calls. Cut-off read from the data, not from the text of the source: active = GI50 up to about 1.1 µM and inactive = higher.
# Assays:
# Experiment in all cases: inhibition of tumour cell growth, NCI panel, 48 h
# COLO 205 = test system: COLO 205
# TK-10 = test system: TK-10
# SR = test system: SR
# SNB-75 = test system: SNB-75
# HCC 2998 = test system: HCC 2998
# NCI/ADR-RES = test system: NCI/ADR-RES
# UO-31 = test system: UO-31
# NCI-H522 = test system: NCI-H522
# ACHN = test system: ACHN
# IGROV-1 = test system: IGROV-1
# HOP-92 = test system: HOP-92
# CCRF-CEM = test system: CCRF-CEM
# LOX IMVI = test system: LOX IMVI
# MOLT-4 = test system: MOLT-4
# NCI-H23 = test system: NCI-H23
# PC-3 = test system: PC-3
# HT-29 = test system: HT-29
# MDA-MB-231 = test system: MDA-MB-231
# OVCAR-8 = test system: OVCAR-8
# DU-145 = test system: DU-145
# UACC-62 = test system: UACC-62
# HCT-116 = test system: HCT-116
# 786-0 = test system: 786-0
# A549 = test system: A549
# OVCAR-5 = test system: OVCAR-5
# OVCAR-3 = test system: OVCAR-3
# EKVX = test system: EKVX
# OVCAR-4 = test system: OVCAR-4
# SNB-19 = test system: SNB-19
# U-251 = test system: U-251
# SW-620 = test system: SW-620
# K562 = test system: K562
# SF-268 = test system: SF-268
# MDA-MB-435 = test system: MDA-MB-435
# A498 = test system: A498
# HOP-62 = test system: HOP-62
# MCF7 = test system: MCF7
# SK-MEL-2 = test system: SK-MEL-2
# SN12C = test system: SN12C
# RPMI-8226 = test system: RPMI-8226
# SK-OV-3 = test system: SK-OV-3
# NCI-H460 = test system: NCI-H460
# SK-MEL-5 = test system: SK-MEL-5
# Malme-3M = test system: Malme-3M
# KM12 = test system: KM12
# SF-295 = test system: SF-295
# SF-539 = test system: SF-539
# M14 = test system: M14
# NCI-H226 = test system: NCI-H226
# BT-549 = test system: BT-549
# UACC-257 = test system: UACC-257
# CAKI-1 = test system: CAKI-1
# SK-MEL-28 = test system: SK-MEL-28
# HCT-15 = test system: HCT-15
# MDA-N = test system: MDA-N
# Hs-578T = test system: Hs-578T
# T47D = test system: T47D
# HL-60 = test system: HL-60
# RXF 393 = test system: RXF 393
smiles,measurement,setting,value
N=C(N)NS(=O)(=O)c1ccc(NC(=O)c2c3ccccc3nc3ccccc23)cc1,GI50,COLO 205,> 100 µM (inactive)
same,GI50,TK-10,> 100 µM (inactive)
same,GI50,SR,> 100 µM (inactive)
same,GI50,SNB-75,> 100 µM (inactive)
same,GI50,HCC 2998,> 100 µM (inactive)
same,GI50,NCI/ADR-RES,> 100 µM (inactive)
same,GI50,UO-31,> 100 µM (inactive)
same,GI50,NCI-H522,> 100 µM (inactive)
same,GI50,ACHN,> 100 µM (inactive)
same,GI50,IGROV-1,> 100 µM (inactive)
same,GI50,HOP-92,> 100 µM (inactive)
same,GI50,CCRF-CEM,> 100 µM (inactive)
same,GI50,LOX IMVI,> 100 µM (inactive)
same,GI50,MOLT-4,> 100 µM (inactive)
same,GI50,NCI-H23,> 100 µM (inactive)
same,GI50,PC-3,> 100 µM (inactive)
same,GI50,HT-29,> 100 µM (inactive)
same,GI50,MDA-MB-231,> 100 µM (inactive)
same,GI50,OVCAR-8,> 100 µM (inactive)
same,GI50,DU-145,> 100 µM (inactive)
same,GI50,UACC-62,> 100 µM (inactive)
same,GI50,HCT-116,> 100 µM (inactive)
same,GI50,786-0,> 100 µM (inactive)
same,GI50,A549,> 100 µM (inactive)
same,GI50,OVCAR-5,> 100 µM (inactive)
same,GI50,OVCAR-3,> 100 µM (inactive)
same,GI50,EKVX,> 100 µM (inactive)
same,GI50,OVCAR-4,> 100 µM (inactive)
same,GI50,SNB-19,86.5 µM (inactive)
same,GI50,U-251,> 100 µM (inactive)
same,GI50,SW-620,> 100 µM (inactive)
same,GI50,K562,> 10 µM (inactive)
same,GI50,SF-268,> 100 µM (inactive)
same,GI50,MDA-MB-435,> 100 µM (inactive)
same,GI50,A498,> 100 µM (inactive)
same,GI50,HOP-62,> 100 µM (inactive)
same,GI50,MCF7,> 100 µM (inactive)
same,GI50,SK-MEL-2,> 100 µM (inactive)
same,GI50,SN12C,> 100 µM (inactive)
same,GI50,RPMI-8226,> 100 µM (inactive)
same,GI50,SK-OV-3,> 100 µM (inactive)
same,GI50,NCI-H460,> 100 µM (inactive)
same,GI50,SK-MEL-5,> 100 µM (inactive)
same,GI50,Malme-3M,> 100 µM (inactive)
same,GI50,KM12,> 100 µM (inactive)
same,GI50,SF-295,> 100 µM (inactive)
same,GI50,SF-539,> 100 µM (inactive)
same,GI50,M14,> 100 µM (inactive)
same,GI50,NCI-H226,43.1 µM (inactive)
same,GI50,BT-549,> 100 µM (inactive)
same,GI50,UACC-257,> 100 µM (inactive)
same,GI50,CAKI-1,> 100 µM (inactive)
same,GI50,SK-MEL-28,> 100 µM (inactive)
same,GI50,HCT-15,> 100 µM
same,GI50,MDA-N,> 100 µM (inactive)
N#Cc1ccccc1OCCOc1ccccc1C#N,GI50,COLO 205,> 100 µM (inactive)
same,GI50,TK-10,> 100 µM (inactive)
same,GI50,SR,> 100 µM (inactive)
same,GI50,SNB-75,61.9 µM (inactive)
same,GI50,Hs-578T,> 100 µM (inactive)
same,GI50,HCC 2998,> 100 µM (inactive)
same,GI50,NCI/ADR-RES,> 100 µM (inactive)
same,GI50,UO-31,> 100 µM (inactive)
same,GI50,NCI-H522,> 100 µM (inactive)
same,GI50,ACHN,> 100 µM (inactive)
same,GI50,IGROV-1,> 100 µM (inactive)
same,GI50,HOP-92,> 100 µM (inactive)
same,GI50,CCRF-CEM,> 100 µM (inactive)
same,GI50,LOX IMVI,> 100 µM (inactive)
same,GI50,MOLT-4,> 100 µM (inactive)
same,GI50,NCI-H23,> 100 µM (inactive)
same,GI50,PC-3,> 100 µM (inactive)
same,GI50,HT-29,> 100 µM (inactive)
same,GI50,MDA-MB-231,> 100 µM (inactive)
same,GI50,OVCAR-8,> 100 µM (inactive)
same,GI50,DU-145,> 100 µM (inactive)
same,GI50,UACC-62,> 100 µM (inactive)
same,GI50,HCT-116,> 100 µM (inactive)
same,GI50,786-0,> 100 µM (inactive)
same,GI50,A549,> 100 µM (inactive)
same,GI50,OVCAR-5,> 100 µM (inactive)
same,GI50,OVCAR-3,> 100 µM (inactive)
same,GI50,EKVX,> 100 µM (inactive)
same,GI50,OVCAR-4,> 100 µM (inactive)
same,GI50,SNB-19,> 100 µM (inactive)
same,GI50,T47D,> 100 µM (inactive)
same,GI50,U-251,61 µM (inactive)
same,GI50,SW-620,> 100 µM (inactive)
same,GI50,K562,20.3 µM (inactive)
same,GI50,SF-268,> 100 µM (inactive)
same,GI50,HL-60,> 100 µM (inactive)
same,GI50,MDA-MB-435,> 100 µM (inactive)
same,GI50,A498,> 100 µM (inactive)
same,GI50,HOP-62,> 100 µM (inactive)
same,GI50,MCF7,> 100 µM (inactive)
same,GI50,SK-MEL-2,> 100 µM (inactive)
same,GI50,SN12C,> 100 µM (inactive)
same,GI50,RXF 393,> 100 µM (inactive)
same,GI50,RPMI-8226,> 100 µM (inactive)
same,GI50,SK-OV-3,> 100 µM (inactive)
same,GI50,NCI-H460,> 100 µM (inactive)
same,GI50,SK-MEL-5,> 100 µM (inactive)
same,GI50,Malme-3M,> 100 µM (inactive)
same,GI50,KM12,> 100 µM (inactive)
same,GI50,SF-295,> 100 µM (inactive)
same,GI50,SF-539,26.1 µM (inactive)
same,GI50,M14,> 100 µM (inactive)
same,GI50,NCI-H226,> 100 µM (inactive)
same,GI50,BT-549,> 100 µM (inactive)
same,GI50,UACC-257,> 100 µM (inactive)
same,GI50,CAKI-1,> 100 µM (inactive)
same,GI50,SK-MEL-28,> 100 µM (inactive)
same,GI50,HCT-15,> 100 µM
